For this assay, the system named is Mouse Type II Collagen-Induced Arthritis. Nature of the assay: Mouse type II collagen-induced arthritis, arthritis score / inhibition rate. It counts as in vivo. To be noted: compound A 30 mg/kg orally once a day for 10 days; DBA/1 J mice; day following the final administration. How it is done: Eight-week-old male DBA/1 J mice (9 or 10 mice per group; Charles River Laboratories Japan) were used. A 2 mg/mL bovine type II collagen dissolved in a 0.1 mol/L acetic acid solution (Koken Co., Ltd.) was mixed with an equal volume of Freund's complete adjuvant (BD Diagnostic Systems) to prepare an emulsion. The emulsion (0.2 mL) was intradermally injected into the hip of each mouse. Twenty-one days after the primary immunization, the same treatment was carried out (secondary sensitization), so that type II collagen arthritis was induced.
Compound A was dissolved in a 2-fold molar amount of sodium hydroxide solution, and a 3-fold weight of polyvinylpyrrolidone was then added to the solution, followed by dilution with distilled water. The concentration of compound A in a compound A (30 mg/kg)-dosing solution was adjusted to be 3 mg/mL. The concentration of compound A in compound A (3 mg/kg)-dosing solution for combined administration was adjusted to be 0.3 mg/mL. Each dosing solution was orally administered to the mice.
The anti-TNFα antibody was dissolved in phosphate buffered saline. The concentration of the anti-TNFα antibody in the anti-TNFα antibody (250 μg/mouse)-dosing solution was adjusted to be 1.25 mg/mL. […]
The knuckle portion and the articulations of wrist and tarsus portions of the four paws of each mouse were evaluated using the following 4 scores. […]

Molecules are shown by their SMILES.

On to `O=C(O)CCc1cc(C(=O)c2ccc(OC3CCCC3)cc2O)ccc1OCc1ccc2c(O)noc2c1` [Compound A, 3-(5-(4-(cyclopentyloxy)-2-hydroxybenzoyl)-2-((3-hydroxy-1,2-benzisoxazol-6-yl)methoxy)phenyl)propionic acid], for which the “Arthritis inhibition rate (%)” value was determined as 23%.

The values are drawn from patent US20110020366A1, “USE OF BENZOPHENONE DERIVATIVE OR SALT THEREOF AND TNF ALPHA INHIBITOR IN COMBINATION AND PHARMACEUTICAL COMPOSITION CONTAINING THE DERIVATIVE OR SALT THEREOF AND THE INHIBITOR” (TOYAMA CHEMICAL CO., LTD., priority 2008, published 2011).
